As usually defined, the IC50 is the concentration needed to halve the response being measured. By Kd is commonly meant the concentration at which binding is half-saturated. Higher therefore signals a looser complex.

Structures can show the parent of a compound that is named as a salt. Where no end group is shown, it is not given here.

The test system of data set [1] is Recombinant neuraminidase of Influenza A virus (A/Aichi/2/1968, H3N2). The data set is classed as biochemical.
In a further data set the target is T1, HA from Aichi H3N2 (Influenza A virus, UniProt P03437).
T1 construct: purchased Sino Biological 11707-V08H
The data set can be described thus: biochemical. Format: binding, Influenza A/Aichi/2/68 H3N2.

Data set [2] has as its system Aichi H3N2 binding to fetuin. The data set can be described thus: SPR inhibition of virus binding to immobilized fetuin. More on the design: species or system Influenza A/Aichi/2/68 H3N2. The note with it: Aichi H3N2 binding to fetuin-immobilized SPR surface, virus preincubated with inhibitor 37°C at least 15 min, four parameter logistic fit, mean ± SEM n≥2. As for the experimental part: Measurements were performed on a Biacore™ T200 (GE-Healthcare Bio-Sciences AB) using CM5 chips, and running buffer HBSP (10 mM Hepes, 150 mM NaCl, 0.05% Tween 20, pH 7.4) at 25°C. Peptides and proteins were immobilized via amine coupling with EDC/NHS at a flow rate of 10 μl min^-1, according to the manufacturer’s instructions (GE Healthcare). Optimum preconcentration was evaluated before, using acetate and phosphate buffers (10 mM) of pH 4 to 7, and ligand concentrations of 10 μg ml^-1. For the immobilization of biotinylated sialyllactose (Lectinity), neutravidin (Thermo Fisher Scientific) (100 μg ml^-1) was immobilized by amine coupling at pH 5.5 enabling high ligand density. Biotinylated sialyllactose was then injected at a concentration of 10 μg ml^-1 in HBSP for 3 min.
A constant concentration of 50 or 100 μg ml^-1 Aichi H3N2 virus was used as analyte, while the concentration of the inhibitors was varied. The suspensions of virus and inhibitor were mixed and subsequently incubated on a Thriller® thermoshaker at 500 rpm and 37°C for at least 15 min to reach equilibrium before injection on the SPR surface. The inhibitors used were peptides or α-2,3’- and α-2,6’-sialyllactose (Carbosynth). […] Inhibition was calculated against the mean value of at least five binding events with the virus alone, using the sigmoidal four parameter logistic fit (Origin).

The test system of a further data set is Aichi H3N2 virus. Format: binding, Influenza A/Aichi/2/68 H3N2 X31. As to conditions: for Virus binding on peptide-modified surfaces: pH 7.4.
A further data set deals with Aichi H3N2. The data set is classed as cell-based, Influenza A/Aichi/2/68 H3N2.
The conditions of data set [3]: due to its amphiphilic character; cited from earlier work.
Data set [4] deals with hemagglutinin (HA) of low pathogenic influenza A/Mute Swan/Rostock/R901/2006 H7N1 K3141, on virus particles (influenza A virus A/Mute Swan/Rostock/R901/2006 H7N1).
Data set [5] shares this target. Put plainly: SPR. (In general: Surface plasmon resonance follows binding to a sensor surface in real time, without labels.)

Take `CC(=O)N[C@H]1[C@H]([C@H](O)[C@H](O)CO)OC(C(=O)O)=C[C@@H]1O` [DANA, N-acetyl-2,3-dehydro-2-deoxy-neuraminic acid disodium salt]: the half-maximal inhibitory concentration (IC50) in data set [1] is 2.2 ± 0.3 µM.

In turn, ARDFYDYDVFYYAMD-NH2 [PeB] showed a Kd at HA from Aichi H3N2 of 56.8 µM. Moreover, the IC50 in data set [2] is 75 ± 13 µM; in data set [2] (listed as PeB^GF), 13 ± 3 µM. As for LGVIWAGGNTNY [PeC], in the data set with Aichi H3N2 virus, the “Minimum detection level (lowest virus concentration showing binding 3 times above the SPR response of a buffer control)” value is 6.25 μg Aichi H3N2 virus protein ml^-1 and the “Virus binding on peptide-modified surfaces” value was “Significant virus binding”.

RRKKAAVALLPAVLLALLAP [EB]: the “fold lower Ki(HAI) as compared to PeB^GF” value in the data set with Aichi H3N2 is recorded as 20 fold. Besides, the Micelle formation entry in data set [3] is given as “forms micelles”.

As for SGFLLISNGVHWV-NH2 [PeA], in the data set with Aichi H3N2 virus, the “Virus binding on peptide-modified surfaces” value is listed as “not”.

ARDFYGYDVFFYAMD-NH2 [PeB^GF (…-amide)] registered an IC50 of microneutralization of Rostock H7N1 on MDCK II cells in data set [4] of 96 µM. Moreover, the half-maximal inhibitory concentration (IC50) in data set [5] is 30 µM. The matching figures for ARDFYDYDVFYYAMD-NH2 [PeB (…-amide)]: 177 µM and 40 µM.

Source of the values: article PMC4944999 (PLoS ONE, 2016).
